“And” between values parts separate entries of the source, which are not always exact repeats. Identical values can stand only once.
System: 2-HG production
Experiment: Plasma 2-HG inhibition (LC-MS metabolite analysis in plasma of AML PDx model)
Format: in vivo, human
Settings: for % plasma 2-HG (treatment group value): vehicle 100%
[1] = 3.3 mg/kg Compound A, QD, PO, Table 1D, each line one animal
[2] = 3.3 mg/kg Compound A, QD, PO, Table 2D, each line one animal
[3] = plasma, B: 1 mg/kg Compound A, QD, PO, one line per animal
[4] = plasma, C: 10 mg/kg Compound A, one line per animal

C=CC(=O)N1CCN([C@@H](CC2CC2)c2ccc([C@H](C)Nc3ncc4c(n3)N(CC)C(=O)OC4)cc2)CC1 [Compound A, 7-[[(1S)-1-[4-[(1S)-2-cyclopropyl-1-(4-prop-2-enoylpiperazin-1-yl)ethyl]phenyl]ethyl]amino]-1-ethyl-4H-pyrimido[4,5-d][1,3]oxazin-2-one]
% Inhibition of 2-HG (plasma) [1]: 92.715% and 97.316% and 100.207% and 99.855% and 92.797% and 94.779%
Naive Subtracted 2-HG (plasma) [1]: 0.134 µM and 0.809 µM and 0.298 µM and -0.023 µM and 0.016 µM and 0.799 µM and 0.579 µM
Plasma 2-HG [1]: 1.042 µM and 1.717 µM and 1.206 µM and 0.885 µM and 0.924 µM and 1.708 µM and 1.488 µM
% Inhibition of 2-HG (plasma) [2]: 118.011% and 98.032% and 112.937% and 127.909% and 122.77% and 118.689% and 111.758%
Naive Subtracted 2-HG (plasma) [2]: -1.236 µM and 0.135 µM and -0.888 µM and -1.915 µM and -1.562 µM and -1.282 µM and -0.807 µM
Plasma 2-HG [2]: 1.701 µM and 3.072 µM and 2.049 µM and 1.022 µM and 1.374 µM and 1.654 µM and 2.13 µM
inhibition at 10 mg/kg (NSG mice, plasma, C: 10 mg/kg Compound A, one line per animal): 84%
inhibition at 3.3 mg/kg (NSG mice, po, 3.3 mg/kg Compound A, QD, Table 1D, each line one animal): 98.8%
inhibition at 1 mg/kg (NSG mice, po, plasma, B: 1 mg/kg Compound A, QD, PO, one line per animal): 54.7%
% plasma 2-HG (treatment group value) (group B: 1 mg Compound A): 38%
% plasma 2-HG (treatment group value) (group B: Compound A (3.3 mg/kg), azacitidine study): −15%
% plasma 2-HG (treatment group value) (group B: Compound A (3.3 mg/kg), cytarabine study): 3.4%
% plasma 2-HG (treatment group value) (group C: 10 mg Compound A): 9.2%
2-HG [3]: 9.264 µM and 6.489 µM and 7.318 µM and 8.683 µM and 8.938 µM
% Inhibition of 2-HG [3]: 73.015% and 67.532% and 58.504% and 56.818%
Naive Subtracted 2-HG [3]: 6.855 µM and 4.08 µM and 4.909 µM and 6.274 µM and 6.529 µM
2-HG [4]: 4.821 µM and 4.395 µM and 4.286 µM and 3.033 µM and 2.863 µM
% Inhibition of 2-HG [4]: 86.867% and 87.584% and 95.874% and 97%
Naive Subtracted 2-HG [4]: 2.412 µM and 1.986 µM and 1.877 µM and 0.624 µM and 0.454 µM

From US12440493B2, “Combination therapy for treating cancer comprising substituted piperazines” (Eli Lilly and Company, priority 2020, dated 2025)
